Results published in the supplement of paper PMC10307832.

Key:
Assay in all cases: relative viability (nuclei count vs DMSO), 5 days (fraction); higher = more cells survive
A-427 = tested on: A-427
In short: (§1)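 Lung cancer cell lines were seeded in 1536-well plates and dosed by pin tool the next day, with either a single drug or a fixed anchor-drug dose combined with five library-drug doses (not always all listed) spaced in √10 steps. Five days later, one step fixed the cells and stained their nuclei (final 0.05% Triton X-100, 1% formaldehyde, 1 ug/ml Hoechst), and nuclei were counted on 4× images. Relative viability is the nuclei count in treated wells divided by the count in vehicle wells, and each value is the median of duplicate plates.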

COR-L 105 = tested on: COR-L 105
In short: as §1

ChaGo-K-1 = tested on: ChaGo-K-1
In short: as §1

EKVX = tested on: EKVX
In short: as §1

EMC-BAC-2 = tested on: EMC-BAC-2
In short: as §1

H3255 = tested on: H3255
In short: as §1

HCC-366 = tested on: HCC-366
In short: as §1

LK-2 = tested on: LK-2
In short: as §1

LOU-NH91 = tested on: LOU-NH91
In short: as §1

NCI-H1563 = tested on: NCI-H1563
In short: as §1

NCI-H1666 = tested on: NCI-H1666
In short: as §1

NCI-H1734 = tested on: NCI-H1734
In short: as §1

NCI-H1755 = tested on: NCI-H1755
In short: as §1

NCI-H1792 = tested on: NCI-H1792
In short: as §1

NCI-H1944 = tested on: NCI-H1944
In short: as §1

NCI-H1975 = tested on: NCI-H1975
In short: as §1

NCI-H2170 = tested on: NCI-H2170
In short: as §1

NCI-H23 = tested on: NCI-H23
In short: as §1

NCI-H441 = tested on: NCI-H441
In short: as §1

NCI-H520 = tested on: NCI-H520
In short: as §1

NCI-H596 = tested on: NCI-H596
In short: as §1

PC-3 [JPC-3] = tested on: PC-3 [JPC-3]
In short: as §1

SK-MES-1 = tested on: SK-MES-1
In short: as §1

SW 900 = tested on: SW 900
In short: as §1

Structure (SMILES): COc1cc(N2CCC(C(N)=O)CC2)ccc1Nc1nc(N)c(Cl)c(Nc2ccccc2S(=O)(=O)C(C)C)n1 [HG-5-88-01] + Nc1nc2[nH]cc(CCc3ccc(C(=O)N[C@@H](CCC(=O)O)C(=O)O)cc3)c2c(=O)[nH]1 [Pemetrexed] (partner 0.2 µM)
- relative viability (A-427; first compound 0.04 µM): 0.951
- relative viability (A-427; first compound 0.1265 µM): 1.01
- relative viability (A-427; first compound 0.4 µM): 1
- relative viability (A-427; first compound 1.265 µM): 1.02
- relative viability (A-427; first compound 4 µM): 0.9
- relative viability (COR-L 105; first compound 0.04 µM): 1.02
- relative viability (COR-L 105; first compound 0.1265 µM): 1.21
- relative viability (COR-L 105; first compound 0.4 µM): 1.18
- relative viability (COR-L 105; first compound 1.265 µM): 0.989
- relative viability (COR-L 105; first compound 4 µM): 0.899
- relative viability (ChaGo-K-1; first compound 0.04 µM): 0.262
- relative viability (ChaGo-K-1; first compound 0.1265 µM): 0.271
- relative viability (ChaGo-K-1; first compound 0.4 µM): 0.24
- relative viability (ChaGo-K-1; first compound 1.265 µM): 0.266
- relative viability (ChaGo-K-1; first compound 4 µM): 0.258
- relative viability (EKVX; first compound 0.04 µM): 0.468
- relative viability (EKVX; first compound 0.1265 µM): 0.407
- relative viability (EKVX; first compound 0.4 µM): 0.301
- relative viability (EKVX; first compound 4 µM): 0.352
- relative viability (EMC-BAC-2; first compound 0.04 µM): 0.416
- relative viability (EMC-BAC-2; first compound 0.1265 µM): 0.432
- relative viability (EMC-BAC-2; first compound 0.4 µM): 0.385
- relative viability (EMC-BAC-2; first compound 1.265 µM): 0.461
- relative viability (EMC-BAC-2; first compound 4 µM): 0.477
- relative viability (H3255; first compound 0.04 µM): 0.578
- relative viability (H3255; first compound 0.1265 µM): 0.571
- relative viability (H3255; first compound 0.4 µM): 0.54
- relative viability (H3255; first compound 4 µM): 0.501
- relative viability (HCC-366; first compound 0.04 µM): 0.197
- relative viability (HCC-366; first compound 0.1265 µM): 0.146
- relative viability (HCC-366; first compound 0.4 µM): 0.113
- relative viability (HCC-366; first compound 1.265 µM): 0.237
- relative viability (HCC-366; first compound 4 µM): 0.287
- relative viability (LK-2; first compound 0.04 µM): 0.159
- relative viability (LK-2; first compound 0.1265 µM): 0.295
- relative viability (LK-2; first compound 0.4 µM): 0.249
- relative viability (LK-2; first compound 4 µM): 0.202
- relative viability (LOU-NH91; first compound 0.04 µM): 0.38
- relative viability (LOU-NH91; first compound 0.1265 µM): 0.44
- relative viability (LOU-NH91; first compound 0.4 µM): 0.376
- relative viability (LOU-NH91; first compound 1.265 µM): 0.456
- relative viability (LOU-NH91; first compound 4 µM): 0.522
- relative viability (NCI-H1563; first compound 0.04 µM): 0.798
- relative viability (NCI-H1563; first compound 0.1265 µM): 0.754
- relative viability (NCI-H1563; first compound 0.4 µM): 0.767
- relative viability (NCI-H1563; first compound 1.265 µM): 0.652
- relative viability (NCI-H1563; first compound 4 µM): 0.973
- relative viability (NCI-H1666; first compound 0.04 µM): 0.893
- relative viability (NCI-H1666; first compound 0.1265 µM): 0.762
- relative viability (NCI-H1666; first compound 0.4 µM): 0.828
- relative viability (NCI-H1666; first compound 1.265 µM): 0.732
- relative viability (NCI-H1666; first compound 4 µM): 0.592
- relative viability (NCI-H1734; first compound 0.04 µM): 0.398
- relative viability (NCI-H1734; first compound 0.1265 µM): 0.423
- relative viability (NCI-H1734; first compound 0.4 µM): 0.361
- relative viability (NCI-H1734; first compound 1.265 µM): 0.391
- relative viability (NCI-H1734; first compound 4 µM): 0.375
- relative viability (NCI-H1755; first compound 0.04 µM): 0.446
- relative viability (NCI-H1755; first compound 0.1265 µM): 0.54
- relative viability (NCI-H1755; first compound 0.4 µM): 0.407
- relative viability (NCI-H1755; first compound 1.265 µM): 0.43
- relative viability (NCI-H1755; first compound 4 µM): 0.447
- relative viability (NCI-H1792; first compound 0.04 µM): 0.769
- relative viability (NCI-H1792; first compound 0.1265 µM): 0.825
- relative viability (NCI-H1792; first compound 0.4 µM): 0.751
- relative viability (NCI-H1792; first compound 1.265 µM): 0.832
- relative viability (NCI-H1792; first compound 4 µM): 0.76
- relative viability (NCI-H1944; first compound 0.04 µM): 0.642
- relative viability (NCI-H1944; first compound 0.1265 µM): 0.695
- relative viability (NCI-H1944; first compound 0.4 µM): 0.643
- relative viability (NCI-H1944; first compound 1.265 µM): 0.615
- relative viability (NCI-H1944; first compound 4 µM): 0.564
- relative viability (NCI-H1975; first compound 0.04 µM): 0.27
- relative viability (NCI-H1975; first compound 0.1265 µM): 0.296
- relative viability (NCI-H1975; first compound 0.4 µM): 0.273
- relative viability (NCI-H1975; first compound 1.265 µM): 0.297
- relative viability (NCI-H1975; first compound 4 µM): 0.203
- relative viability (NCI-H2170; first compound 0.04 µM): 0.286
- relative viability (NCI-H2170; first compound 0.1265 µM): 0.28
- relative viability (NCI-H2170; first compound 0.4 µM): 0.261
- relative viability (NCI-H2170; first compound 1.265 µM): 0.257
- relative viability (NCI-H2170; first compound 4 µM): 0.249
- relative viability (NCI-H23; first compound 0.04 µM): 0.678
- relative viability (NCI-H23; first compound 0.1265 µM): 0.77
- relative viability (NCI-H23; first compound 0.4 µM): 0.592
- relative viability (NCI-H23; first compound 1.265 µM): 0.56
- relative viability (NCI-H23; first compound 4 µM): 0.385
- relative viability (NCI-H441; first compound 0.04 µM): 0.28
- relative viability (NCI-H441; first compound 0.1265 µM): 0.279
- relative viability (NCI-H441; first compound 0.4 µM): 0.229
- relative viability (NCI-H441; first compound 1.265 µM): 0.276
- relative viability (NCI-H441; first compound 4 µM): 0.258
- relative viability (NCI-H520; first compound 0.04 µM): 0.604
- relative viability (NCI-H520; first compound 0.1265 µM): 0.592
- relative viability (NCI-H520; first compound 0.4 µM): 0.454
- relative viability (NCI-H520; first compound 1.265 µM): 0.737
- relative viability (NCI-H520; first compound 4 µM): 0.61
- relative viability (NCI-H596; first compound 0.04 µM): 0.499
- relative viability (NCI-H596; first compound 0.1265 µM): 0.548
- relative viability (NCI-H596; first compound 0.4 µM): 0.478
- relative viability (NCI-H596; first compound 1.265 µM): 0.482
- relative viability (NCI-H596; first compound 4 µM): 0.441
- relative viability (PC-3 [JPC-3]; first compound 0.04 µM): 1.16
- relative viability (PC-3 [JPC-3]; first compound 0.1265 µM): 1.1
- relative viability (PC-3 [JPC-3]; first compound 0.4 µM): 0.935
- relative viability (PC-3 [JPC-3]; first compound 1.265 µM): 0.913
- relative viability (PC-3 [JPC-3]; first compound 4 µM): 0.348
- relative viability (SK-MES-1; first compound 0.04 µM): 0.922
- relative viability (SK-MES-1; first compound 0.1265 µM): 0.923
- relative viability (SK-MES-1; first compound 0.4 µM): 0.827
- relative viability (SK-MES-1; first compound 1.265 µM): 0.853
- relative viability (SK-MES-1; first compound 4 µM): 1
- relative viability (SW 900; first compound 0.04 µM): 0.504
- relative viability (SW 900; first compound 0.1265 µM): 0.512
- relative viability (SW 900; first compound 0.4 µM): 0.46
- relative viability (SW 900; first compound 1.265 µM): 0.477
- relative viability (SW 900; first compound 4 µM): 0.379
